pEC50: −log10 of the molar value.
How the values were obtained:
MDA-MB-231 = test: Cytotoxicity of EP probes via CTG assay; type: cell-based, human; settings: Homo sapiens, MDA-MB-231, 72 hr, read-out: MDA-MB231 EC50
Experimental: Both normal cell lines HMEC and BJ cells were also evaluated to determine therapeutic index.
The concentrations used were experimentally determined to ensure logarithmic growth during the duration of the experiment and prevent adverse effects on cell growth by DMSO exposure. The plates were incubated at 37° C. in 5% CO2 for 24 h before treatment. Stock solutions of test compounds (10 mM in DMSO) in nine 3-fold serial dilutions were dispensed via pintool (Biomek). The final concentration of DMSO was 0.3% (v/v) in each well. The plates were incubated for 72 h at 37° C. in 5% CO2 and then quenched with CellTiter-Glo® reagent (50 μL/well in 96-well plate, 30 μL/well in 384-well plate) at RT. The positive controls included staurosporine (10 μM), gambogic acid (10 μM), and a toxic quinoline generated in-house. Plates were then incubated at RT for 20 min and centrifuged at 1000 rpm for 1 min. The cytotoxicity assay was performed by using the CellTiterGlo Luminescent Cell Viability Assay kit (G7570, Promega, Madison, WI) according to the manufacturer's instructions. Luminescence was recorded in an Envision plate reader (Perkin Elmer).
For the CTG assay, 3 or 4 replicate assays were conducted for each experimental condition, and a minimum of 3 independent experiments were conducted for cellular assays. The mean luminescence of each experimental treatment group was normalized as a percentage of the mean intensity of untreated controls. EC50 values (μM) were calculated by Pipeline Pilot Software (Accelrys, Enterprise Platform, CA, USA). EC50 values (μM) from the viability assay were calculated from dose response curve-fitting via non-linear regression by using GraphPad Prism (Version 7.0 San Diego, CA).

MCF10A = type: cell-based
Experimental: As a control, normal human skin fibroblasts (BJ) cells and non-cancerous mammary epithelial cells (MCF10A) were used.
Cell viability assays (MTT or PI staining assays) in SUM-149, SUM-190, MDA-MB-231, and MCF10A cells were performed as we previously described [14].

MDA-MB-231 cells [1] = test: ApoTox-Glo Triplex assay (caspase 3/7); type: cell-based, human; settings: MDA-MB-231, 24 h
Experimental: (§1) Cells commonly fail to bypass the G1 phase of the cycle due to mutations or DNA damage, which can result in apoptosis. […] In addition, caspase 3/7 activity assays were performed as an alternate method of apoptosis detection.
(§2) Cells (9.5×10^4/well in 75 μL of fresh medium) were dispensed in 96-well black flat bottom (8807BC, Corning) plates. The cells were incubated for 12 h at 37° C. and then treated with compounds (25 μL) for 24 h. DMSO was used as a negative control, and staurosporine was used as the positive control. The experiment was stopped by adding the Viability/Cytotoxicity Reagent and briefly mixed by orbital shaking (300-500 rpm for ˜30 sec). Plates were incubated for 30 min at 37° C., and fluorescence was measured in an Envision plate reader at the following two wavelength sets: 400Ex/505Em (Viability) 485Ex/520Em (Cytotoxicity). Then, the Caspase-Glo® 3/7 Reagent was added; plates were mixed briefly by orbital shaking (300-500 rpm for ˜30 sec), followed by an additional 30 min incubation at RT. Then luminescence, which correlates with caspase 3/7 activation, was recorded with a plate reader to determine apoptosis induction.

SUM-149 cells [2] = test: ApoTox-Glo Triplex assay (caspase 3/7); type: cell-based, human; settings: SUM-149, 24 h
Experimental: as §1, §2

[3] = tested on: MDA-MB-231 breast cancer cells; test: De novo in-cell protein synthesis (click assay); type: cell-based, human; settings: 2 h treatment; EP 20 μM
Experimental: First, 2.5×10^4 cells/well were seeded in 8-well μ-slides (Ibidi®, #80826) and incubated at 37° C. for 12 h. The cells were treated with vehicle, compounds Ganoderic acid A or EP, or cycloheximide (positive control) for 2 h to determine protein synthesis as nascent proteins generated using Biovision's EZClick™ Global Protein Synthesis Assay Kit, (#K715-100, Milpitas, CA). The assay includes a robust chemical method based on an alkyne containing o-propargyl-puromycin (OP-puro) probe, which stops translation by forming covalent conjugates with nascent polypeptide chains. Truncated polypeptides are rapidly turned over by the proteasome and can be detected based on the subsequent click reaction with a fluorescent azide. The reaction was conducted according to the manufacturer's protocol. Cells were imaged at 20× with a Nikon C2 scanning confocal microscope, and the whole image montage was quantified by using Gen5 Software and Lionheart™ FX Automated Microscope (BioTek, Winooski, VT).

MDA-MB-231 cells [4] = test: Reactive oxygen species (ROS) measurement, CellROX; type: cell-based, human; settings: EP 20 μM, vs vehicle
SUM-149 cells [5] = test: Migration assay (Boyden chamber); type: cell-based, human; settings: 10 μM, 72 h
Experimental: Previously, the anti-migratory activities of whole mushroom GLE in SUM-149 cells was reported. To investigate EP's effects on cell migration, Boyden chamber assays; while to investigate invasion, Transwell chambers were used. […] Furthermore, an additional decrease (43%) was seen when cells were treated with a non-lethal dose of 15 μM of EP (P<0.01) (FIG. 8B).
Cell migration and invasion were measured by using Corning® FluoroBlok™ Cell Culture Inserts and performing BD BioCoat Matrigel invasion assays (BD Biosciences, San José, Calif.) as described in [12, 14].

Solubility observations = type: physicochemical
Experimental: One of the liabilities with EP is sharing its core with cholesterol, an amphipathic molecule with part-water soluble, part-water insoluble character. Thus, while able to readily cross the cell membrane, the ability to deliver the pure compound faces challenges. EP's solubility properties are poor in DMSO or water unless warmed up to 30° C. However, in this report, EP's derivative, EP sulfonamide, was soluble at 10 mM in DMSO. Thus, the generation of a selective anti-cancer compound with greater potency than EP, and ample therapeutic window when compared to BJ normal cells, was accomplished.

[6] = Incubation with NAC monitored by NMR and LC-MS; type: physicochemical; settings: DMSO, 24 h, 37° C.
Experimental: Live-cell CellROX® assays for oxidative stress detection were conducted to evaluate whether GA-01, ergosterol, 5-6-dihydroergosterol and EP trigger intrinsic apoptosis pathways by inducing ROS. […] Menadione or t-Butyl hydrogen peroxide (TBHP) were positive controls (FIGS. 7 and S5) and co-treated with N-acetyl cysteine (NAC) to confirm that the signal was due to ROS formation induced by the compound. […] Furthermore, the possibility of the endoperoxide motif to react with NAC, was assessed EP was incubated with NAC in DMSO for 24 h at 37° C. […] Thus, the ability of EP to induce ROS could potentially be via a different mechanism from that of TBHP in MCF-7 cells.

MDA-MB-231 GFP tumors = test: In vivo tumor progression, MDA-MB-231-GFP mammary fat pad xenograft; settings: 100 mg/kg BW i.p. three times per week, female SCID mice
Experimental: Female severe combined immunodeficient (SCID) mice (21 d of age) were purchased from Charles River Laboratories International Inc. (Wilmington, MA) and housed under specific pathogen free conditions. The mice received autoclaved AIN 76-A phytoestrogen-free diet (Tek Global, Harlan Teklad, Madison, WI) and water ad libitum. This protocol was approved by the Universidad Central del Caribe IACUC. Cell inoculations were performed as previously described by the inventors (PMID: 20517637, PMID: 23468988, PMID: 26958085, PMID: 30542507, PMID: 31658643). […] After tumor establishment the animals were randomly divided into control and experimental groups. Treatment started on week 5 post-inoculations when tumors were ˜100 mm^3. […]
The mice were imaged following tumor establishment, and once per week thereafter. Tumor progression was monitored by fluorescence image analysis taken on an UVP iBox Explorer (Analytik Jena, Upland, CA) and quantified as in PMID: 20517637. Relative tumor growth was calculated as the fluorescence intensity of each tumor on day of imaging. Quantification for tumor progression was calculated using the fluorescence intensity of each treated tumor relative to the fluorescence intensity of the same tumor on d 01 of treatment administration (week 5) using ImageJ software (National Institutes of Health, Bethesda, MD). […]

## CC(C)[C@@H](C)/C=C/[C@@H](C)[C@H]1CC[C@@H]2[C@]1(C)CC[C@H]1[C@]23C=C[C@]2(C[C@@H](O)CC[C@]12C)OO3 [EP, ergosterol peroxide]
MDA-MB-231
  pEC50: 4.74
MCF10A
  cytotoxicity in MCF10A non-cancerous mammary epithelial cells: did not induce cytotoxicity
MDA-MB-231 cells [1]
  caspase 3/7 activity: increase caspase 3/7 activity
SUM-149 cells [2]
  caspase 3/7 activity: increase caspase 3/7 activity
[3]
  de novo protein synthesis inhibition: do not inhibit de novo protein synthesis
MDA-MB-231 cells [4]
  ROS formation, fold: 2 fold
SUM-149 cells [5]
  cancer cell migration: decreases cancer cell migration
Solubility observations
  solubility properties (in words): poor
[6]
  reaction of the endoperoxide with NAC: no observable olefin migration or opening of the endoperoxide was detected
MDA-MB-231 GFP tumors
  tumor growth rate (GFP fluorescence integrated density relative to week 5): significantly decreases
